SMILES strings stand for the structures.

The first assay relates to MCH receptors. In words: MCH receptor activity class (method not given).
Conditions: not given
On to `Cc1cc(N[C@H]2CC[C@@H](NC(=O)[C@H](O)c3cccc(Cl)c3)CC2)nc2ccccc12` [Example 2555, (2R)-2-(3-chlorophenyl)-2-hydroxy-N-{cis-4-[(4-methylquinolin-2-yl)amino]cyclohexyl}acetamide], for which the class was 1.

The assay is the same for the next values; noted with them: MCH receptor activity class 1-3 (percent of control at 10^-7 M or IC50).
Consider `CN(C)c1cc(N[C@H]2CC[C@@H](CNC(=O)Nc3c(Cl)cccc3Cl)CC2)nc2ccccc12` [compound 2399], for which the class was 3 (Class 3 The value of percent of control at 10^−7 M was more than 60% or the value of IC50 was more than 200 nM.).

For `COC(=O)c1cccc(NC(=S)N[C@H]2CC[C@@H](Nc3nccc(N(C)C)n3)CC2)c1` [compound 2327], the class is listed as 3 (Class 3 The value of percent of control at 10^−7 M was more than 60% or the value of IC50 was more than 200 nM.).

As for `CN(C)c1cc(N[C@H]2CC[C@@H](NC(=S)Nc3ccc4c(c3)OCO4)CC2)nc2ccccc12` [compound 2305], the class is on record as 3 (Class 3 The value of percent of control at 10^−7 M was more than 60% or the value of IC50 was more than 200 nM.).

The assay is the same for the next values; noted with them: MCH receptor; class by percent of control at 10^-7 M or IC50.
In the case of `CN(C)c1nc(N[C@H]2CC[C@@H](NC(=O)Nc3cc(Cl)ccc3[N+](=O)[O-])CC2)nc2c1CCCC2` [compound 1901], the class was 3 (Class 3 The value of percent of control at 10^−7 M was more than 60% or the value of IC50 was more than 200 nM.).

For the compound `CC(=O)c1cccc(NC(=S)N[C@H]2CC[C@@H](Nc3nc4c(c(N(C)C)n3)CCCC4)CC2)c1` [compound 1925], the class is reported as 3 (Class 3 The value of percent of control at 10^−7 M was more than 60% or the value of IC50 was more than 200 nM.).

Turning to `CN(C)c1nc(N[C@H]2CC[C@@H](NC(=S)Nc3cc(Cl)ccc3F)CC2)nc2c1CCCC2` [compound 2066], the class is given as 3 (Class 3 The value of percent of control at 10^−7 M was more than 60% or the value of IC50 was more than 200 nM.).

For `CN(C)c1cc(N[C@H]2CC[C@@H](CNC(=O)Cc3cccs3)CC2)nc2ccccc12` [compound 180], the class is on record as 3 (Class 3 The value of percent of control at 10^−7 M was more than 60% or the value of IC50 was more than 200 nM.).

The assay is the same for the next values; noted with them: activity class 1-3: percent of control at 10^-7 M or IC50.
As to `COc1ccccc1OC(=O)NC[C@H]1CC[C@@H](Nc2cc(N(C)C)c3ccccc3n2)CC1` [compound 1564], the class is 3 (Class 3 The value of percent of control at 10^−7 M was more than 60% or the value of IC50 was more than 200 nM.).

The same assay, now with this note: activity class per percent of control at 10^-7 M or IC50.
As for `C[C@@H](c1ccccc1)N(C(=O)c1ccccc1C(=O)N[C@H]1CC[C@@H](Nc2nc3c(c(N(C)C)n2)CCCC3)CC1)[C@@H](C)c1ccccc1` [compound 1015], the class is 1 (Class 1: The value of percent of control at 10^−7 M was less than 40% or the value of IC50 was less than 50 nM.).

Regarding `CN(C)c1nc(N[C@H]2CC[C@@H](NC(=O)Cc3c[nH]c4ccccc34)CC2)nc2c1CCCC2` [compound 986, N-(cis-4-{[4-(diniethylamino)-5,6,7,8-tetrahydroquinazolin-2-yl]amino}cyclohexyl)-2-(1H-indol-3-yl)acetamide], the class is recorded as 1 (Class 1: The value of percent of control at 10^−7 M was less than 40% or the value of IC50 was less than 50 nM.).

The same assay, now with this note: class 1-3 by percent of control at 10^-7 M or IC50.
Turning to `CN(C)c1nc(NC2CCC(NC(=O)OCc3ccccc3)CC2)nc2c1CCCC2` (centres unmarked) [compound 491], the class is 3 (Class 3 The value of percent of control at 10^−7 M was more than 60% or the value of IC50 was more than 200 nM.).

The same assay, now with this note: class by percent of control at 10^-7 M or IC50.
On to `Cc1ccc([N+](=O)[O-])c(NC(=O)N[C@H]2CC[C@@H](Nc3nc4c(c(N(C)C)n3)CCCC4)CC2)c1C` [compound 1798], for which the class was 3 (Class 3 The value of percent of control at 10^−7 M was more than 60% or the value of IC50 was more than 200 nM.).

For the compound `COc1ccc(OC)c(CC(=O)N[C@H]2CC[C@@H](Nc3nccc(N(C)C)n3)CC2)c1` [compound 253], the class is listed as 3 (Class 3 The value of percent of control at 10^−7 M was more than 60% or the value of IC50 was more than 200 nM.).

As for `CN(C)c1ccnc(N[C@H]2CC[C@@H](NC(=O)Nc3ccc4c(c3)OCO4)CC2)n1` [compound 2238], the class was 3 (Class 3 The value of percent of control at 10^−7 M was more than 60% or the value of IC50 was more than 200 nM.).

For the compound `COc1cc(C)c(CNC[C@H]2CC[C@@H](Nc3cc(N(C)C)c4ccccc4n3)CC2)cc1C` [compound 1195], the class is 3 (Class 3 The value of percent of control at 10^−7 M was more than 60% or the value of IC50 was more than 200 nM.).

In the case of `COc1ccc(C(=O)N[C@H]2CC[C@@H](Nc3nccc(N(C)C)n3)CC2)cc1OC` [compound 322], the class is on record as 3 (Class 3 The value of percent of control at 10^−7 M was more than 60% or the value of IC50 was more than 200 nM.).

For `CN(C)c1cc(N[C@H]2CC[C@@H](CNC(=O)c3c(F)cccc3Cl)CC2)nc2ccccc12` [compound 232], the class is recorded as 3 (Class 3 The value of percent of control at 10^−7 M was more than 60% or the value of IC50 was more than 200 nM.).

As for `CC(CN[C@H]1CC[C@@H](Nc2nccc(N(C)C)n2)CC1)c1ccccc1` (relative stereo) [compound 1231], the class is given as 3 (Class 3 The value of percent of control at 10^−7 M was more than 60% or the value of IC50 was more than 200 nM.).

For `CN(C)c1nc(N[C@H]2CC[C@@H](NCc3ccc(F)c(Br)c3)CC2)nc2c1CCCC2` [compound 1346], the class is 3 (Class 3 The value of percent of control at 10^−7 M was more than 60% or the value of IC50 was more than 200 nM.).

On to `COc1cc(NC(=O)N[C@H]2CC[C@@H](Nc3nccc(N(C)C)n3)CC2)cc(OC)c1OC` [compound 2239, N-(cis-4-{[4-(dimethylamino)pyrimidin-2-yl]amino}cyclohexyl)-N′-(3,4,5-trimethoxyphenyl)urea], for which the class is reported as 1 (Class 1: The value of percent of control at 10^−7 M was less than 40% or the value of IC50 was less than 50 nM.).

Consider `Cc1ccc(NC(=O)N[C@H]2CC[C@@H](Nc3nc4c(c(N(C)C)n3)CCCC4)CC2)cc1[N+](=O)[O-]` [compound 1894], for which the class is on record as 3 (Class 3 The value of percent of control at 10^−7 M was more than 60% or the value of IC50 was more than 200 nM.).

In the case of `CN(C)c1nc(N[C@H]2CC[C@@H](NC(=S)Nc3c(Cl)cc(Cl)cc3Cl)CC2)nc2c1CCCC2` [compound 1754], the class was 2 (Class 2: The value of percent of control at 10^−7 M was from 40% to 60% or the value of IC′50 was from 50 nM to 200 nM.).

Turning to `CN(C)c1ccnc(N[C@H]2CC[C@@H](CNCc3csc4ccccc34)CC2)n1` [compound 1299], the class is listed as 3 (Class 3 The value of percent of control at 10^−7 M was more than 60% or the value of IC50 was more than 200 nM.).

`CN(C)c1nc(N[C@H]2CC[C@@H](CNCCCCCCCCc3ccccc3)CC2)nc2c1CCCC2` [compound 1502]: the class is reported as 3 (Class 3 The value of percent of control at 10^−7 M was more than 60% or the value of IC50 was more than 200 nM.).

In the case of `CN(C)c1ccnc(N[C@H]2CC[C@@H](NC(=O)Cc3sc(-c4ccccc4)nc3-c3ccc(Cl)cc3)CC2)n1` [compound 900, 2-[4-(4-chlorophenyl)-2-phenyl-1,3-thiazol-5-yl]-N-(cis-4-{[4-(dimethylamino)pyrimidin-2-yl]amino}cyclohexyl)acetamide], the class is 1 (Class 1: The value of percent of control at 10^−7 M was less than 40% or the value of IC50 was less than 50 nM.).

In the case of `CN(C)c1nc(N[C@H]2CC[C@@H](CNCc3cccc(Br)c3)CC2)nc2c1CCCC2` [compound 1385], the class is 3 (Class 3 The value of percent of control at 10^−7 M was more than 60% or the value of IC50 was more than 200 nM.).

Take `CN(C)c1ccnc(N[C@H]2CC[C@@H](NC(=O)Cc3ccc(Oc4ccccc4)cc3)CC2)n1` [compound 868]: the class was 3 (Class 3 The value of percent of control at 10^−7 M was more than 60% or the value of IC50 was more than 200 nM.).

In the case of `CCc1ccc(CNC[C@H]2CC[C@@H](Nc3nc4c(c(N(C)C)n3)CCCC4)CC2)s1` [compound 1399], the class is reported as 3 (Class 3 The value of percent of control at 10^−7 M was more than 60% or the value of IC50 was more than 200 nM.).

With `CN(C)c1nc(N[C@H]2CC[C@@H](NC(=O)Nc3c(F)cc(F)cc3Br)CC2)nc2c1CCCC2` [compound 1852], the class is on record as 3 (Class 3 The value of percent of control at 10^−7 M was more than 60% or the value of IC50 was more than 200 nM.).

The same assay, now with this note: class by percent of control at 10^−7 M or IC50.
For the compound `Cc1cc(N(C)C)nc(NC[C@H]2CC[C@@H](NC(=O)c3ccc(Cl)c(Cl)c3)CC2)n1` [compound 2749], the class was 2 (Class 2: The value of percent of control at 10^−7 M was from 40% to 60% or the value of IC′50 was from 50 nM to 200 nM.).

Turning to `COc1cc(OC)cc(C(=O)N[C@H]2CC[C@@H](CNc3ncc(C)c(N(C)C)n3)CC2)c1` [compound 2716, N-[cis-4-({[4-(dimethylamino)-5-methylpyrimidin-2-yl]amino}methyl)cyclohexyl]-3,5-dimethoxybenzamide], the class is recorded as 2 (Class 2: The value of percent of control at 10^−7 M was from 40% to 60% or the value of IC′50 was from 50 nM to 200 nM.).

Consider `Cc1nc(N[C@H]2CC[C@@H](NC(=O)c3ccc(C#N)cc3)CC2)nc(N(C)C)c1C` [compound 2844, 4-cyano-N-(cis-4-{[4-(dimethylamino)-5,6-dimethylpyrimidin-2-yl]amino}cyclohexyl)benzamide], for which the class is 1 (Class 1: The value of percent of control at 10^−7 M was less than 40% or the value of IC50 was less than 50 nM.).

Consider `CCc1cccc(C(=O)N[C@H]2CC[C@@H](Nc3nc(C)c(C)c(N(C)C)n3)CC2)c1` [compound 2855, N-(cis-4-{[4-(dimethylamino)-5,6-dimethylpyrimidin-2-yl]amino}cyclohexyl)-3-ethylbenzamide], for which the class is 2 (Class 2: The value of percent of control at 10^−7 M was from 40% to 60% or the value of IC′50 was from 50 nM to 200 nM.).

For `COc1ccc(Oc2ncccc2C(=O)N[C@H]2CC[C@@H](Nc3ncc(C)c(N(C)C)n3)CC2)cc1` [compound 2888, N-(cis-4-{[4-(dimethylamino)-5-methylpyrimidin-2-yl]amino}cyclohexyl)-2-(4-methoxyphenoxy)nicotinamide], the class is given as 1 (Class 1: The value of percent of control at 10^−7 M was less than 40% or the value of IC50 was less than 50 nM.).

Source of the values: US20050197350A1, “Novel quinoline, tetrahydroquinazoline, and pyrimidine derivatives and methods of treatment related to the use thereof” (TAISHO PHARMACEUTICAL CO., LTD., priority 2003, published 2005).
